From ChEMBL document CHEMBL5154755, “Discovery of Novel Indazoles as Potent and Selective PI3Kδ Inhibitors with High Efficacy for Treatment of Hepatocellular Carcinoma” (J Med Chem, 2022)

Each molecule was assayed on Bel-7402 (assay: Antitumor activity against human Bel-7402 cells xenografted in Balb/c (nu/nu) mouse assessed as relative tumor volume at 30 mg/kg, po qd after 14 days (Rvb=25.69+/-2.73)). Settings: time 14 day.
Assay type: functional
`CNC(=O)c1cc(Oc2ccc(NC(=O)Nc3ccc(Cl)c(C(F)(F)F)c3)cc2)ccn1` [SORAFENIB] gave an Activity of 11.6.

What follows are molecules tested on Bel-7402 (assay: Antitumor activity against human Bel-7402 cells xenografted in Balb/c (nu/nu) mouse assessed as tumor weight at 30 mg/kg, po qd after 14 days (Rvb=0.65 +/- 0.06 g)). Settings: time 14 day.
Assay type: functional
For `CNC(=O)c1cc(Oc2ccc(NC(=O)Nc3ccc(Cl)c(C(F)(F)F)c3)cc2)ccn1` [SORAFENIB], the Activity was 0.32 g.

These molecules were tested on Bel-7402 (assay: Antitumor activity against human Bel-7402 cells xenografted in BAlb/c (nu/nu) mouse assessed as T/C ratio at 30 mg/kg, po daily measured after 14 days). Settings: time 14 day.
Assay type: functional
Work on `CNC(=O)c1cc(Oc2ccc(NC(=O)Nc3ccc(Cl)c(C(F)(F)F)c3)cc2)ccn1` [SORAFENIB] yielded a T/C of 45.13%.

The molecules below were run on Bel-7402 (assay: Antitumor activity against human Bel-7402 cells xenografted in BAlb/c (nu/nu) mouse assessed as inhibition rate at 30 mg/kg, po daily measured after 14 days). Settings: Bel-7402, 336 h, time 14 day.
Assay type: functional
`CNC(=O)c1cc(Oc2ccc(NC(=O)Nc3ccc(Cl)c(C(F)(F)F)c3)cc2)ccn1` [SORAFENIB] was tested, and the inhibition in vivo at 30 mg/kg was 51.3%.
